What all share (format): functional
In test [1] the test system is Agrilus planipennis. In words: Insecticidal activity against Agrilus planipennis isolated from 21 days after 25 uCi compound treated by trunk injected ash tree leaves assessed as mortality at 64 ug/g.
Test [2] has as its system Agrilus planipennis. In words: Insecticidal activity against Agrilus planipennis isolated from 21 days after 25 uCi compound treated by trunk injected ash tree leaves assessed as mortality at 0.55 to 60 ug/g.
Test [3] concerns Agrilus planipennis. In words: Insecticidal activity against Agrilus planipennis isolated from 45 days after 25 uCi compound treated by trunk injected ash tree leaves assessed as mortality measured after 3 days of feeding.
Test [4] concerns Agrilus planipennis. Briefly: Insecticidal activity against Agrilus planipennis infected ash trees assessed as mortality at 25 uCi treated by trunk injection measured after 45 days.
Test [5] has as its system Agrilus planipennis. Briefly: Insecticidal activity against Agrilus planipennis isolated from 21 days after 25 uCi compound treated by trunk injected ash tree leaves assessed as mortality measured after 3 days of feeding.
Test [6] deals with Agrilus planipennis. Briefly: Insecticidal activity against Agrilus planipennis infected ash trees assessed as mortality at 25 uCi treated by trunk injection measured after 21 days.

SMILES strings stand for the structures.

For the compound `O=[N+]([O-])/N=C1\NCCN1Cc1ccc(Cl)nc1` [IMIDACLOPRID], the Activity in the test with Agrilus planipennis [1] came out at 70%; in the test with Agrilus planipennis [2], 11%; in the test on Agrilus planipennis [3] it was 70%; with Agrilus planipennis [4], 17%; with Agrilus planipennis [5] it was 44%; in the test on Agrilus planipennis [6], 11%.

Source of the values: ChEMBL document CHEMBL3044756, “Distribution of trunk-injected ¹⁴C-imidacloprid in ash trees and effects on emerald ash borer (Coleoptera: Buprestidae) adults” (2009).
